Source: patent US20240325517A1, “COMPOSITIONS AND METHODS TARGETING FILAMENTOUS BACTERIOPHAGE” (THE UNIVERSITY OF MONTANA, priority 2020, published 2024)
Read-outs that look alike come from different tables or passages of the source. Where no end group is shown, it is not given here.

Tests used:
CoaBa [1] = assay: Anti-CoaBa IgG subtypes induced with TLR4 agonist, ELISA (Example 10); assay type: in vivo, C57/BL/6 mice; parameters: unit not given here; details: booster day 14, serum 14 days post-secondary
CoaBa [2] = assay: as above; assay type: in vivo, C57/BL/6 mice; parameters: Mean total IgG / Mean IgG1 / Mean IgG2b: unit not given here; details: for Mean IgG1 / Mean IgG2b / Mean total IgG: booster day 14, serum 14 days post-secondary
Description: Female C57/BL/6 mice aged 6-8 weeks old (5 per group) were vaccinated intramuscularly with […] of CoaBa-CRM conjugate in combination with indicated dose of TLR4 agonist Adjuvant A. A booster with respective dose of adjuvant combination with 1 μg of CoaBa-CRM conjugate was administered 14 days post primary. ELISA data are from serum collected 14 days postsecondary vaccination boost. (A) Total IgG, (B) IgG1, (C) IgG2a isotypes are shown.

CoaBa1 hapten = assay: Adjuvant system for CoaB-CRM conjugate, total serum IgG ELISA (Example 9); assay type: in vivo, C57/BL/6 mice; details: for Mean Log10 total serum IgG titer: booster day 14, serum 14 days post-secondary
Description: The lead CoaB vaccines consist of a peptide hapten conjugated to CRM197. To determine whether TLR7 and TLR4 adjuvants would provide a beneficial effect on antibody titres or provide a dose sparing effect, female C57/BL/6 mice aged 6-8 weeks old (10 per group) were vaccinated intramuscularly with 1 μg of CoaBa-CRM conjugate in combination with indicated dose of (Adjuvant B), a TLR 7/8 adjuvant, and or (Adjuvant A) a TLR4 adjuvant. A booster with respective dose of adjuvant combination with […] of CoaBa-CRM conjugate was administered 14 days post primary. ELISA data is from serum collected 14 days post-secondary vaccination boost.

CoaBa1 = assay: Total IgG ELISA, plate coated with CoaBa1 (Example 11); assay type: in vivo, C57/BL/6 mice; details: for Total IgG ELISA plate coated with CoaBa1: 1 μg conjugate IM, with 1 μg Adj A where named, booster day 14, serum 14 days post-secondary; for cross-reactivity to CoaBa1 (in words): vaccination, Tables 16 and 17 cited in text
Description: (§1) Female C57/BL/6 mice aged 6-8 weeks old (8 per group) were vaccinated intramuscularly with 1 μg of CoaBa-CRM or […] of CoaBb-CRM conjugate in combination with […] dose of TLR 4 agonist Adjuvant A. A booster with 1 μg dose of Adjuvant A adjuvant combination with 1 μg of respective conjugate was administered 14 days post primary. ELISA data is from serum collected 14 days post-secondary vaccination boost. CoaBa1 within-clade cross reactive immunity against coaBa2 was determined. (Tables 15 and 16). Clade A CoaBa cross-reactive immunity against Clade B CoaBb epitope was determined. (Table 17).

CoaBb1 = assay: Total IgG ELISA, plate coated with CoaBb1 (Example 11); assay type: in vivo, C57/BL/6 mice; details: 1 μg conjugate IM, with 1 μg Adj A where named; booster day 14; serum 14 days post-secondary
Description: as §1

CoaBa2 = assay: Total IgG ELISA, plate coated with CoaBa2 (Example 11); assay type: in vivo, C57/BL/6 mice; details: for Total IgG ELISA plate coated with CoaBa2: 1 μg conjugate IM, with 1 μg Adj A where named, booster day 14, serum 14 days post-secondary
Description: as §1

sheep red blood cells = details: cited from earlier work
[3] = cited from earlier work
[4] = target: CoaBa (Pseudomonas aeruginosa filamentous (Pf) bacteriophage); assay: anti-CoaBa serum ELISA; 14 days post boost; C57BL/6
[5] = 0.001 μg Adj A with 1 μg CoaBa-CRM conjugate IM
[6] = 0.01 μg Adj A with 1 μg CoaBa-CRM conjugate IM
[7] = 0.1 μg Adj A with 1 μg CoaBa-CRM conjugate IM
[8] = 10 μg Adj A with 1 μg CoaBa-CRM conjugate IM
[9] = 0.0001 μg Adj A with 1 μg CoaBa-CRM conjugate IM
[10] = 1 μg Adj A with 1 μg CoaBa-CRM conjugate IM

CCCCCCCCCCC[C@H](CC(=O)NCCO[C@@H]1OC(CO)[C@@H](OS(=O)(=O)O)[C@H](NC(=O)C[C@@H](CCCCCCCCCCC)OC(=O)CCCCCCCCC)C1NC(=O)C[C@@H](CCCCCCCCCCC)OC(=O)CCCCCCCCC)OC(=O)CCCCCCCCC (stereo partly shown) [Adjuvant A]
Mean IgG2b (CoaBa [1]; [5]): 1.22
Mean IgG2b (CoaBa [1]; [6]): 2.45
Mean IgG2b (CoaBa [1]; [7]): 3.90
Mean IgG2b (CoaBa [1]; [8]): 3.31
Mean IgG1 (CoaBa [2]; [9]): 0.95
Mean IgG2b (CoaBa [2]; [9]): 1.02
Mean total IgG (CoaBa [2]; [9]): 1.27
Mean IgG1 (CoaBa [2]; [5]): 1.86
Mean total IgG (CoaBa [2]; [5]): 2.38
Mean IgG1 (CoaBa [2]; [6]): 1.99
Mean total IgG (CoaBa [2]; [6]): 3.15
Mean IgG1 (CoaBa [2]; [7]): 2.45
Mean total IgG (CoaBa [2]; [7]): 4.00
Mean IgG1 (CoaBa [2]; [10]): 3.60
Mean IgG2b (CoaBa [2]; [10]): 4.31
Mean total IgG (CoaBa [2]; [10]): 4.19
Mean IgG1 (CoaBa [2]; [8]): 2.88
Mean total IgG (CoaBa [2]; [8]): 4.25
IgG subtype analysis (in words) (CoaBa [2]; adjuvanting CoaBa with Adjuvant A): elicited both IgG1 and IgG2b subclasses
Mean Log10 total serum IgG titer (CoaBa1 hapten; [6]): 3.74 Log10
Mean Log10 total serum IgG titer (CoaBa1 hapten; [7]): 4.55 Log10
Mean Log10 total serum IgG titer (CoaBa1 hapten; [10]): 5.12 Log10
antibody titers against the CoaBa1 hapten (in words) (CoaBa1 hapten; vaccine dose experiments with 1 μg CoaBa-CRM conjugate): produced the highest antibody titers against the CoaBa1 hapten

CoaBa1: CoaBa1 hapten-CRM197 conjugate vaccine (GVIDTSAVESAITDGQGD; not fully specified)
Total IgG ELISA plate coated with CoaBa1 (CoaBa1): 0.50
Total IgG ELISA plate coated with CoaBb1 (CoaBb1): 0.5
Total IgG ELISA plate coated with CoaBa2 (CoaBa2): 0.5
cross-reactivity to CoaBa2-CRM197 (in words) (CoaBa2; vaccination, Table 15 cited in text): produced cross-reactivity to CoaBa2-CRM197

CoaBa2: CoaBa2 hapten-CRM197 conjugate vaccine (GSVIDTSAVEAAITEGKGD; not fully specified)
Total IgG ELISA plate coated with CoaBa1 (CoaBa1): 0.50
cross-reactivity to CoaBa1 (in words) (CoaBa1): produced cross-reactivity to CoaBa1-CRM197
Total IgG ELISA plate coated with CoaBa2 (CoaBa2): 0.5

CoaBb1: CoaBb-CRM conjugate vaccine, subclade b1 (ADSLIDETTKEVLTQAGTDG; also: conjugated to CRM carrier, site not given here)
cross-reactivity to CoaBa1 (in words) (CoaBa1): did not produce cross-reactive immunity to clade A subtypes CoaBa1
Total IgG ELISA plate coated with CoaBb1 (CoaBb1): 0.5

QS-17
concentrations causing hemolysis of sheep red blood cells (sheep red blood cells): ≥ 25000 ng/mL
critical micellar concentration ([3]; in phosphate buffered saline): 0.03 % (w/v)
critical micellar concentration ([3]; in water): 0.06 % (w/v)

QS-18
critical micellar concentration ([3]; in phosphate buffered saline): 0.02 % (w/v)
critical micellar concentration ([3]; in water): 0.04 % (w/v)

QS-21
concentrations causing hemolysis of sheep red blood cells (sheep red blood cells): ≥ 25000 ng/mL
critical micellar concentration ([3]; in phosphate buffered saline): ~0.02 % (w/v)
critical micellar concentration ([3]; in water): about 0.03 % (w/v)

serum of naïve (unvaccinated) mice
Mean IgG1 [4]: 0.5
Mean IgG2b [4]: 0.5
Mean total IgG [4]: 0.5
